# Test results as given in patent US20050187221A1, “Method of treating ischemia reperfusion injury” (Japan Tobacco Inc., priority 2003, published 2005).
# Counter-ions that a name gives are not always drawn.
# Assays:
# [1] = tested on: hearts of Sprague-Dawley rats (myocardial ischemia reperfusion injury); assay: Cardiac function of isolated Langendorff-perfused rat hearts after 30 min global ischemia and 60 min reperfusion; assay type: ex vivo
# Procedure: Sixteen Sprague-Dawley rats (300 g, male) were divided into a control group (“C group,” n=8) and a group administered (−)-ethyl N-{3,5-dichloro-2-hydroxy-4-[2-(4-methylpiperazin-1-yl)ethoxy]benzoyl}-L-phenylalaninate dihydrochloride (“J group,” n=8). All rats were anesthesized by intraperitoneal injection of sodium pentobarbital (50 mg/kg), and either (a) 0.5 mL of saline (C group) or (b) 10 mg/kg of (−)-ethyl N-{3,5-dichloro-2-hydroxy-4-[2-(4-methylpiperazin-1-yl)ethoxy]benzoyl}-L-phenylalaninate dihydrochloride dissolved in 5% mannitol (J group) was administered intraperitoneally to the rats. Anticoagulation was ensured by the intraperitoneal administration of 200 USP units of heparin.
# Ten minutes after the administration of heparin and either (a) saline (C group) or (b) 10 mg/kg of (−)-ethyl N-{3,5-dichloro-2-hydroxy-4-[2-(4-methylpiperazin-1-yl)ethoxy]benzoyl}-L-phenylalaninate dihydrochloride dissolved in 5% mannitol (J group), the hearts of the rats were excised and perfused with modified Krebs-Henseleit buffer (120.0 mM NaCl, 4.5 mM KCl, 20.0 mM NaHCO3, 1.2 mM KH2PO4, 1.2 MgCl2, 2.5 mM CaCl2, and 10.0 mM glucose: gassed with 95% O2+5% CO2 to obtain a pH of 7.4 at 37° C.) at the pressure equal to 1 m H2O by means of a Langendorff apparatus. A thin-wall latex balloon was inserted into the left ventricle through the left atrium to monitor left ventricular pressure and to control left ventricular volume.
# After stabilization, heart rate (HR), left ventricular developed pressure (LVDP), maximum dP/dt (maximum dP/dt), and coronary flow (CF) were measured with LV diastolic pressure stabilized at 10 mm Hg. The hearts were subjected to global ischemia at 37° C. for 30 minutes, followed by 60 minutes of reperfusion. The balloon was deflated during ischemia, and the hearts were not paced during reperfusion. HR, LVDP, maximum dP/dt, and CF were continuously measured after reperfusion and analyzed using a Polygraph System (Nihon Kouden, Japan).
# There were significant differences between the two groups, however, following global ischemia and reperfusion. FIGS. 1 and 2 depict the cardiac function (as measured by LVDP and maximum dP/dt) after ischemia reperfusion between the C and J groups. For the following parameters, data are expressed as mean±standard error of the mean (SEM). The difference in the data on functional recoveries were determined with one-way repeated measure ANOVA. The difference in the data on CPK leakage and tissue cytokine concentrations were determined with unpaired Student's t test. A p value of less than 0.05 was considered statistically significant.
# [2] = tested on: TNF-α; assay: Tissue level of TNF-α in the myocardium after reperfusion (ELISA); parameters: species or system Sprague-Dawley rats; settings: 10 mg/kg intraperitoneally; after 60 min reperfusion; mean±SEM; C group 550±80, p<0.05
# Procedure: (§1) Sixteen Sprague-Dawley rats (300 g, male) were divided into a control group (“C group,” n=8) and a group administered (−)-ethyl N-{3,5-dichloro-2-hydroxy-4-[2-(4-methylpiperazin-1-yl)ethoxy]benzoyl}-L-phenylalaninate dihydrochloride (“J group,” n=8). All rats were anesthesized by intraperitoneal injection of sodium pentobarbital (50 mg/kg), and either (a) 0.5 mL of saline (C group) or (b) 10 mg/kg of (−)-ethyl N-{3,5-dichloro-2-hydroxy-4-[2-(4-methylpiperazin-1-yl)ethoxy]benzoyl}-L-phenylalaninate dihydrochloride dissolved in 5% mannitol (J group) was administered intraperitoneally to the rats. Anticoagulation was ensured by the intraperitoneal administration of 200 USP units of heparin. […]
# (§2) After stabilization, heart rate (HR), left ventricular developed pressure (LVDP), maximum dP/dt (maximum dP/dt), and coronary flow (CF) were measured with LV diastolic pressure stabilized at 10 mm Hg. […] HR, LVDP, maximum dP/dt, and CF were continuously measured after reperfusion and analyzed using a Polygraph System (Nihon Kouden, Japan).
# (§3) After 60 minutes of reperfusion, frozen sections of the hearts were made and stored at −80° C. for further assessment. […] The concentrations of tissue inflammatory cytokines were measured using ELISA kits (TNF-α, IL-1β, and IL-6: Biosource International, California; and IL-8: Immuno-Biological Laboratories, Gunma, Japan) according to the manufacturer's recommendation. […]
# [3] = tested on: IL-8; assay: Tissue level of IL-8 in the myocardium after reperfusion (ELISA); assay type: ex vivo (isolated Langendorff-perfused heart), Sprague-Dawley rats; settings: 10 mg/kg intraperitoneally; after 60 min reperfusion; mean±SEM; C group 240±40, p<0.05
# Procedure: as §1, §2, §3
# [4] = tested on: IL-6; assay: Tissue level of IL-6 in the myocardium after reperfusion (ELISA); assay type: ex vivo (isolated Langendorff-perfused heart, dosed in vivo), Sprague-Dawley rats; settings: 10 mg/kg intraperitoneally; after 60 min reperfusion; mean±SEM; C group 300±80, p<0.05
# Procedure: as §1, §2, §3
# [5] = tested on: cardiac myocytes (CPK leakage); assay: Creatine phosphokinase (CPK) leakage into the coronary effluent after reperfusion; assay type: ex vivo (isolated perfused hearts from dosed rats), Sprague-Dawley rats; settings: 10 mg/kg intraperitoneally; coronary effluent for 60 minutes after reperfusion; mean±SEM; C group 140±61, p<0.05
# Procedure: as §1
# as §2, with “Japan). […]” for “Japan).”
# There were significant differences between the two groups, however, following global ischemia and reperfusion. FIGS. 1 and 2 depict the cardiac function (as measured by LVDP and maximum dP/dt) after ischemia reperfusion between the C and J groups. For the following parameters, data are expressed as mean±standard error of the mean (SEM). […]
# [6] = tested on: IL-1β; assay: Tissue level of IL-1β in the myocardium after reperfusion (ELISA); assay type: ex vivo (isolated Langendorff-perfused heart after in vivo dosing), Sprague-Dawley rats; settings: 10 mg/kg intraperitoneally; after 60 min reperfusion; mean±SEM; C group 3700±700, not statistically significantly different
# Procedure: as §1, §2, §3
smiles,measurement,setting,value
"CCOC(=O)[C@H](Cc1ccccc1)NC(=O)c1cc(Cl)c(OCCN2CCN(C)CC2)c(Cl)c1O [(−)-ethyl N-{3,5-dichloro-2-hydroxy-4-[2-(4-methylpiperazin-1-yl)ethoxy]benzoyl}-L-phenylalaninate dihydrochloride]",peak value of percent recovery of LVDP after reperfusion,"[1]; 10 mg/kg intraperitoneally 10 min before heart excision, 30 min global ischemia at 37° C., 60 min reperfusion, percentage of basal LVDP, mean±SEM, C group 39±6%, p<0.05",79±5%
same,peak value of percent recovery of maximum dP/dt after reperfusion,"[1]; 10 mg/kg intraperitoneally 10 min before heart excision, 30 min global ischemia, 60 min reperfusion, percentage of basal maximum dP/dt, mean±SEM, C group 54±7%, p<0.05",80±4%
same,percent recovery of LVDP versus C group over time,"[1]; 10 mg/kg intraperitoneally, at 20, 30, 40, 50, and 60 minutes after reperfusion",Significant improvements
same,percent recovery of max dP/dt versus C group over time,"[1]; 10 mg/kg intraperitoneally, at 30, 40, 50, and 60 minutes after reperfusion",significant improvement
same,tissue level of TNF-α in the myocardium after reperfusion,[2],240±30 pg/mg tissue
same,tissue level of IL-8 in the myocardium after reperfusion,[3],68±19 pg/mg tissue
same,tissue level of IL-6 in the myocardium after reperfusion,[4],60±7 pg/mg tissue
same,CPK leakage of the coronary effluent,[5],2.9±2.0 IU/60 minutes
same,tissue level of IL-1β in the myocardium after reperfusion,[6],2600±200 pg/mg tissue
